Results: ChEMBL document CHEMBL1131240, “Novel benzothiazolin-2-one and benzoxazin-3-one arylpiperazine derivatives with mixed 5HT1A/D2 affinity as potential atypical antipsychotics” (J Med Chem, 1998)

How the values were obtained:
[1] = biological target: 5-hydroxytryptamine receptor 1B (Rattus norvegicus, UniProt P28564); test: Affinity towards 5-hydroxytryptamine 1B receptor in membranes from rat frontal cortex using [3H]5-HT; format: tissue-based
[2] = biological target: 5-hydroxytryptamine receptor 2A (Bos taurus, UniProt Q75Z89); test: Affinity towards 5-hydroxytryptamine 2A receptor in membranes from bovine frontal cortex using [3H]ketanserin; format: tissue-based
Sequence of 5-hydroxytryptamine receptor 2A (Q75Z89 whole entry): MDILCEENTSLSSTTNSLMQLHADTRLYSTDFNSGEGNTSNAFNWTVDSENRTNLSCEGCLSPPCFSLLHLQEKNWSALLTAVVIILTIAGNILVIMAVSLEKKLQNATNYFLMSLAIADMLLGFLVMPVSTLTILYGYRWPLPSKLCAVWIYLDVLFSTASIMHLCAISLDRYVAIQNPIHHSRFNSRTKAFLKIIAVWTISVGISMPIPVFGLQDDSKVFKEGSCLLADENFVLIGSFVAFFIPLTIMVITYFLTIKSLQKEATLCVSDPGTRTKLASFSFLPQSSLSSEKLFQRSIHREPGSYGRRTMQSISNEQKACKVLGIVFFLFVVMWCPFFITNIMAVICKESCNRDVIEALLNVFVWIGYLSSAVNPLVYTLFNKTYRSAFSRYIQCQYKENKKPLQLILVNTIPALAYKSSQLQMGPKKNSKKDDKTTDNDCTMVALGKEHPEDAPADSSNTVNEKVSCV

[3] = biological target: T1, Alpha-1A adrenergic receptor (Bos taurus, UniProt P18130); test: Affinity towards Alpha-1A adrenergic receptor in membranes from bovine frontal cortex using [3H]prazosin; format: tissue-based
T1 sequence (P18130 whole entry): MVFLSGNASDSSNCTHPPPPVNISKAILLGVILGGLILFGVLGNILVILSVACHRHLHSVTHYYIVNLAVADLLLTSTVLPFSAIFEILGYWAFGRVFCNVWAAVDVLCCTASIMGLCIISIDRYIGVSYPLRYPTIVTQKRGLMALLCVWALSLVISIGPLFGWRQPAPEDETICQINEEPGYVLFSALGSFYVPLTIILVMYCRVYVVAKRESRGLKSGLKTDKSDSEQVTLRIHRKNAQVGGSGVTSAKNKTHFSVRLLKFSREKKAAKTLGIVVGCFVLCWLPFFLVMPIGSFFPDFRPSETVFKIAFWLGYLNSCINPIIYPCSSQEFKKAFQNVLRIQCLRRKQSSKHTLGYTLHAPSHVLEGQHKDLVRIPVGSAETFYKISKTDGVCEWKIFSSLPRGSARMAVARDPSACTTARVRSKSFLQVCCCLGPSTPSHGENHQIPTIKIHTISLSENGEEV

Mus musculus [4] = test: Tail suspension test in mice, dose(mg/Kg ip) = 4;duration of immobility(% vs controls); format: functional
Mus musculus [5] = test: Compound was evaluated in vivo antagonism of mescaline-induced scratching(% vs controls), dose(mg/Kg ip)=4; format: functional
Mus musculus [6] = test: Compound was evaluated in vivo antagonism of mescaline-induced scratching(% vs controls), dose(mg/Kg ip)=0.25; format: functional
Mus musculus [7] = test: Compound was evaluated in vivo antagonism of mescaline-induced scratching(% vs controls), dose(mg/Kg ip)=1; format: functional
Rattus norvegicus [8] = test: Antagonism of SKF 10047 -induced hypermotility (% vs controls) dose(mg/Kg po) = 8; format: functional
Rattus norvegicus [9] = test: Antagonism of PCP-induced stereotypies (%vs controls), dose(mg/Kg po) = 0.5; format: functional
Rattus norvegicus [10] = test: Antagonism of PCP-induced stereotypies (%vs controls), dose(mg/Kg po) = 2; format: functional
Rattus norvegicus [11] = test: Antagonism of PCP-induced stereotypies (%vs controls), dose(mg/Kg po) = 8; format: functional
Rattus norvegicus [12] = test: Antagonism of SKF 10047 -induced hypermotility (% vs controls) dose(mg/Kg po) = 0.5; format: functional
Rattus norvegicus [13] = test: effects on Sidman Avoidance performance in rats, number of escape failure (absolute change from control), p<0.01, dose(mg/Kg po) =32; format: functional
Rattus norvegicus [14] = test: effects on Sidman Avoidance performance in rats, number of escape failure (absolute change from control),n=10 animals per group, dose(mg/Kg po) =16; format: functional
Rattus norvegicus [15] = test: effects on Sidman Avoidance performance in rats, number of shocks (absolute change from control), p<0.001, dose(mg/Kg po) =32; format: functional
Rattus norvegicus [16] = test: effects on Sidman Avoidance performance in rats, number of shocks (absolute change from control),n=10 animals per group, dose(mg/Kg po) =16; format: functional
Rattus norvegicus [17] = test: effects on Sidman Avoidance performance in rats, number of escape failure (absolute change from control), dose(mg/Kg po) =8; format: functional
Rattus norvegicus [18] = test: effects on Sidman Avoidance performance in rats, number of Avoidance performance(% change from control) p<0.001 dose(mg/Kg po) =32; format: functional
Rattus norvegicus [19] = test: effects on Sidman Avoidance performance in rats, number of Avoidance performance(% change from control), p<0.01,dose(mg/Kg po) =16; format: functional
Rattus norvegicus [20] = test: Effects on Sidman Avoidance performance in rats, number of Avoidance performance (% change from control), dose (mg/Kg po) = 8; format: functional
Rattus norvegicus [21] = test: Effects on Sidman Avoidance performance in rats, number of shocks (absolute change from control), dose (mg/Kg po) =8; format: functional
Mus musculus [22] = test: Compound was evaluated in vivo antagonism of mescaline-induced scratching(% vs controls), dose(mg/Kg ip)=2; format: functional
Mus musculus [23] = test: Compound was evaluated in vivo antagonism of mescaline-induced scratching(% vs controls), dose(mg/Kg ip)=1, p<0.05
Mus musculus [24] = test: Compound was evaluated in vivo antagonism of mescaline-induced scratching(% vs controls), dose(mg/Kg ip)=4, p<0.001; format: functional
Mus musculus [25] = test: Compound was evaluated in vivo antagonism of mescaline-induced scratching(% vs controls), dose(mg/Kg ip)=2, ns
Mus musculus [26] = test: Compound was evaluated in vivo antagonism of mescaline-induced scratching(% vs controls), dose(mg/Kg ip)=8, p<0.001; format: functional
Rattus norvegicus [27] = test: effects on Sidman Avoidance performance in rats, number of shocks (absolute change from control), p<0.001, dose(mg/Kg po) =1; format: functional
Rattus norvegicus [28] = test: effects on Sidman Avoidance performance in rats, number of escape failure (absolute change from control), p<0.01, dose(mg/Kg po) =1; format: functional
Rattus norvegicus [29] = test: Antagonism of SKF 10047 -induced hypermotility (% vs controls) dose(mg/Kg po) = 1

Sequence of 5-hydroxytryptamine receptor 1B (P28564 whole entry): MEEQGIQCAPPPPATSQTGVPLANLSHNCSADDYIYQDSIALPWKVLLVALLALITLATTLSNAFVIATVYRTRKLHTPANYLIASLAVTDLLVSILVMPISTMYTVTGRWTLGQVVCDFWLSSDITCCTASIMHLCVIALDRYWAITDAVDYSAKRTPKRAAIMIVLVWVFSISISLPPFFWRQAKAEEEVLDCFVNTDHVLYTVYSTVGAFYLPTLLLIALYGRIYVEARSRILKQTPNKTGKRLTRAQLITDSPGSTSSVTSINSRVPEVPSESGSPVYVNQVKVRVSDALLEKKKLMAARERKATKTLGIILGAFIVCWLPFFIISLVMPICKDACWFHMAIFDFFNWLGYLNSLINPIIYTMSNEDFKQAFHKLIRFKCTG

SMILES	IC50 [1] [nM]	IC50 [2] [nM]	IC50 [3] [nM]	Duration of immobility (Mus musculus [4])	further results
COc1ccccc1N1CCN(CCCc2ccc3nc(O)sc3c2)CC1	61	290	1	99	Activity (Mus musculus [5]): 96
COc1ccccc1N1CCN(CCc2ccc3c(c2)sc(=O)n3C)CC1	300	500	10	89	Activity (Mus musculus [6]): 92; Activity (Mus musculus [7]): 100; Hypermotility (Rattus norvegicus [8]): 71; Hypermotility (Rattus norvegicus [9]): 12; Hypermotility (Rattus norvegicus [10]): 2; Hypermotility (Rattus norvegicus [11]): 21; Hypermotility (Rattus norvegicus [12]): 39; No. of escape failure (Rattus norvegicus [13]): 63.6; No. of escape failure (Rattus norvegicus [14]): 18.5; No. of shocks (Rattus norvegicus [15]): 87.8; No. of shocks (Rattus norvegicus [16]): 23.8; No. of escape failure (Rattus norvegicus [17]): 5.8; No. of avoidance (Rattus norvegicus [18]): 78; No. of avoidance (Rattus norvegicus [19]): 38; No. of avoidance (Rattus norvegicus [20]): 12; No. of shocks (Rattus norvegicus [21]): 7.3
COc1ccccc1N1CCN(CCCc2ccc3c(c2)sc(=O)n3C)CC1	360	910	6		Activity (Mus musculus [22]): 73
COc1ccccc1N1CCN(CCc2ccc3c(c2)OCC(=O)N3C)CC1	180	600	0.5		
Cn1c(=O)sc2cc(CCN3CCN(c4cccc(C(F)(F)F)c4)CC3)ccc21	70	600	400		
Oc1nc2ccc(CCN3CCN(c4ccccc4)CC3)cc2s1	300	40			
O=c1[nH]c2ccc(CCN3CCN(c4cccc(C(F)(F)F)c4)CC3)cc2s1	600	200	90		
COc1ccccc1N1CCN(CCCCc2ccc3c(c2)OCC(=O)N3C)CC1		840	20	124	Activity (Mus musculus [23]): 81
CN1C(=O)COc2cc(CCN3CCN(c4cccc(C(F)(F)F)c4)CC3)ccc21	460	620	85		
Cn1c(=O)sc2cc(CCN3CCN(c4ccc(F)cc4)CC3)ccc21	3000	200	30		
Cn1c(=O)sc2cc(CCN3CCN(c4ccccc4O)CC3)ccc21	31	1100			
COc1ccccc1N1CCN(CCc2ccc3nc(O)sc3c2)CC1	20	300	0.6		
Cn1c(=O)sc2cc(CCCCN3CCN(c4cccc(C(F)(F)F)c4)CC3)ccc21	1000	400	200		
COc1ccccc1N1CCN(CCCCc2ccc3c(c2)sc(=O)n3C)CC1	300	1000	30	36	
Oc1nc2ccc(CCN3CCN(c4ccccc4O)CC3)cc2s1	260	530		92	Activity (Mus musculus [24]): 97; Activity (Mus musculus [25]): 71
Cn1c(=O)sc2cc(CCN3CCN(c4ccccc4)CC3)ccc21	200	70	> 100		
CN1C(=O)COc2cc(CCCCN3CCN(c4cccc(C(F)(F)F)c4)CC3)ccc21	280	620	30		Activity (Mus musculus [26]): 87; Activity (Mus musculus [25]): 60
O=c1[nH]c2ccc(CCCCN3CCN(c4cccc(C(F)(F)F)c4)CC3)cc2s1	400	570	45		
COc1ccccc1N1CCN(CCCCc2ccc3[nH]c(=O)sc3c2)CC1	200	150	0.82		
CN1CCN(C2=Nc3cc(Cl)ccc3Nc3ccccc32)CC1 [CLOZAPINE]				90	Activity (Mus musculus [24]): 99; No. of escape failure (Rattus norvegicus [13]): 53.8; No. of shocks (Rattus norvegicus [15]): 71.1
O=C(CCCN1CCC(O)(c2ccc(Cl)cc2)CC1)c1ccc(F)cc1 [HALOPERIDOL]				65	No. of shocks (Rattus norvegicus [27]): 99.7; No. of escape failure (Rattus norvegicus [28]): 84.6; Hypermotility (Rattus norvegicus [29]): 94
